Reference: ChEMBL document CHEMBL1155732, “Anti-AIDS agents. 46. Anti-HIV activity of harman, an anti-HIV principle from Symplocos setchuensis, and its derivatives” (J Nat Prod, 2001)

Assays:
H9 = experiment: Cytotoxicity against human H9 cells; format: cell-based
[1] = tested on: Human immunodeficiency virus 1; experiment: Antiviral activity against HIV1 in human H9 cells assessed as inhibition of viral replication; format: functional, organism-based
[2] = Therapeutic index, ratio of IC50 for human H9 cells to EC50 for HIV1; format: cell-based; conditions: for selectivity ratio: H9 cells, read-out: Ratio IC50/EC50; for Ratio IC50/EC50: h9
[3] = Human immunodeficiency virus 1, H9, read-out: EC50

| SMILES | EC50 ([1]; h9) | IC50 (H9; Homo sapiens, H9) [µM] | EC50 [1, 3] [µM] | selectivity ratio [2] | IC50 (H9; h9) [µM] | EC50 ([1]; h9, read-out: EC50) [µM] | Ratio IC50/EC50 [2] |
| --- | --- | --- | --- | --- | --- | --- | --- |
| CCn1c2cc(OC)ccc2c2ccnc(C)c21 | – | 8.5 | 0.35 | 24.2 | – | – | – |
| Br.COc1cc2[nH]c3c(C)nccc3c2cc1Br | – | – | – | – | 5.9 | 0.22 | 26.8 |
| COc1ccc2c(c1)[nH]c1c(C)[n+](C)ccc12.[I-] | – | 49.6 | 8.6 | – | – | – | 5.8 |
| CCC[n+]1ccc2c([nH]c3cc(OC)ccc32)c1C.[I-] | – | 55.4 | 9.6 | – | – | – | 5.8 |
| COc1cc2[nH]c3c(C)nccc3c2cc1Br | – | – | – | – | 74 | 13.2 | 5.6 |
| Cc1nccc2c1[nH]c1cc(OC(C)C)ccc12 | Not Active | 86.7 | – | – | – | – | – |
| CCCCCCOc1ccc2c(c1)[nH]c1c(C)nccc12 | Not Active | 8.2 | – | – | – | – | – |
| CCOc1ccc2c(c1)[nH]c1c(C)nccc12 | – | 25.9 | 6.5 | – | – | – | 4 |
| CC1=NCCc2c1[nH]c1ccccc21 | – | 110 | 32 | – | – | – | 3.4 |
| CC(=O)Oc1ccc2c(c1)[nH]c1c(C)nccc12 | – | 107 | 17.3 | – | – | – | 6.2 |
| COc1ccc2c3c([nH]c2c1)C(C)N(N=O)CC3 (stereo not given) | – | 56.5 | 7.1 | 8 | – | – | – |
| CCCCn1c2cc(OC)ccc2c2ccnc(C)c21 | – | 7.8 | 0.037 | 210 | – | – | – |
| COc1ccc2c3ccn(C)c(C)c-3nc2c1 | – | 70.9 | – | – | – | – | 15.8 |
| COS(=O)(=O)O.Cc1nccc2c1[nH]c1ccccc12 | – | – | – | – | 77.5 | 10.3 | 7.5 |
| COc1ccc2c3ccnc(C)c3n(C)c2c1 | – | 10.1 | 1.1 | 9.2 | – | – | – |
| CCCn1c2cc(OC)ccc2c2cc[n+](C)c(C)c21.[Br-] | – | 53.2 | 23.8 | – | – | – | 2.2 |
| Br.CC1=NCCc2c1[nH]c1cc(O)ccc21 | Not Active | 97.1 | – | – | – | – | – |
| COc1cc(C[C@H]2COC(=O)[C@@H]2Cc2ccc(OC(C)=O)c(OC)c2)ccc1OC(C)=O | – | 49.3 | 6.9 | 7.1 | – | – | – |
| COc1cc([C@@H]2OC[C@@H]3[C@H]2CO[C@H]3c2ccc(O)c(OC)c2)ccc1O [(+)-PINORESINOL] | Not Active | 67 | – | – | – | – | – |
| CC1=NCCc2c1[nH]c1cc(O)ccc21.Cl [HARMALOL HYDROCHLORIDE] | Not Active | – | – | – | 87.1 | – | – |
| Cc1nccc2c1[nH]c1ccccc12 [HARMAN] | – | 112 | 10.7 | 10.4 | – | – | – |
| COc1ccc2c(c1)[nH]c1c(C)nccc12 [HARMINE] | – | 26.4 | 0.52 | – | – | – | 50.8 |
| Cc1[nH]ccc2c1[nH]c1cc(=O)ccc12 [HARMOL] | – | 108 | 11.1 | – | – | – | 9.7 |
| COc1cc([C@H]2c3cc(O)c(OC)cc3C[C@@H](CO)[C@@H]2CO)ccc1O [ISOLARICIRESINOL] | Not Active | > 277 | – | – | – | – | – |
| COc1cc(C[C@H]2COC(=O)[C@@H]2Cc2ccc(O)c(OC)c2)ccc1O [MATAIRESINOL] | – | 21.9 | 2 | 11 | – | – | – |
| COc1cc(C[C@H]2COC(=O)[C@@H]2Cc2ccc(O[C@@H]3O[C@H](CO)[C@@H](O)[C@H](O)[C@H]3O)c(OC)c2)ccc1O [MATAIRESINOSIDE] | Not Active | > 192 | – | – | – | – | – |
| c1ccc2c(c1)[nH]c1cnccc12 [NORHARMANE] | – | 142 | 44.1 | – | – | – | 3.2 |

Continued, in another order:

| EC50 ([1]; h9) | SMILES | IC50 (H9; Homo sapiens, H9) [µM] | EC50 [1, 3] [µM] | selectivity ratio [2] | IC50 (H9; h9) [µM] | EC50 ([1]; h9, read-out: EC50) [µM] | Ratio IC50/EC50 [2] |
| --- | --- | --- | --- | --- | --- | --- | --- |
| Not Active | COc1ccc2c(c1)[nH]c1c(/C=C/c3ccc([N+](=O)[O-])cc3)nccc12 | 15.4 | – | – | – | – | – |
| Not Active | CCCCCCCCCCCCCCCCOc1ccc2c(c1)[nH]c1c(C)nccc12 | 42.7 | – | – | – | – | – |
| Not Active | Cc1cc(O)n2c(n1)nc1ccccc12 | 118 | – | – | – | – | – |
| Not Active | CCCCCCCCCCOc1ccc2c(c1)[nH]c1c(C)nccc12 | 5.9 | – | – | – | – | – |
| Not Active | Cc1nccc2c1[nH]c1cc(OC(=O)C34CCC(C)(C(=O)O3)C4(C)C)ccc12 (stereo not given) | 58.9 | – | – | – | – | – |
| Not Active | CCCCCCCCC1NC(C(=O)O)Cc2c1[nH]c1ccccc21 (stereo not given) | 60.4 | – | – | – | – | – |
